The source of these data is US12637687B2, “Nucleic acid molecules, polypeptides having epoxy group-removing catalytic activity and use thereof” (SHANDONG AGRICULTURAL UNIVERSITY, priority 2020, dated 2026).

Common to all, as to details: in vivo
In assay [1] the test system is ThFhb7. On the set-up: species or system Thinopyrum ponticum.
The subject of assay [2] is F. graminearum.
The subject of assay [3] is F. graminearum. This is another data set of the same source.
Assay [4] relates to F. graminearum. This is another data set of the same source.

In the case of `CC(=O)O[C@@H]1C[C@]2(C)[C@@]3(CO)[C@H](O)C(=O)C(C)=C[C@H]3O[C@H]1[C@@]21CO1` [3-ADON, 3-acetyl-deoxynivalenol], the “conversion into glutathione adducts in transgenic wheat overexpressing ThFhb7” value (“conversion into glutathione adducts” below) in assay [1] is recorded as “efficiently catalyzed into glutathione adducts”. For the molecule `CC(=O)OC[C@]12[C@H](O)C(=O)C(C)=C[C@H]1O[C@@H]1[C@H](O)C[C@@]2(C)[C@]12CO2` [15-ADON, 15-acetyl-deoxynivalenol], the “conversion into glutathione adducts” value in assay [1] is given as “efficiently catalyzed into glutathione adducts”. Regarding `CC1=C[C@H]2O[C@@H]3[C@H](O)C[C@](C)([C@@]2(CO)[C@H](O)C1=O)[C@]31CO1` [DON, deoxynivalenol], the “conversion into glutathione adducts” value in assay [1] is “efficiently catalyzed into glutathione adducts”. Consider `CC1=C[C@H]2O[C@@H]3[C@H](O)[C@@H](O)[C@](C)([C@@]2(CO)[C@H](O)C1=O)[C@]31CO1` [NIV, nivalenol], for which the “conversion into glutathione adducts” value in assay [1] is given as “efficiently catalyzed into glutathione adducts”.

B1: ThFhb7: de-epoxidase from Thinopyrum ponticum; polypeptide having epoxy group-removing catalytic activity, amino acid sequence SEQ ID NO: 36, gene SEQ ID NO: 1 (protein, listed as Elytrigia ponticum)
chain: MATSASTSTPIIPTAIAGAPPVAGTCCAVAPTLSALALAPLAVPTTTTTVLMPAISSVAASLAVPACALPAAGSAPATLPIIHAPATASLVGASPAIAATLGATTPASGAGALPPPGLLATAVGAAMPGLLIPLSGIAASPGLAATAAPASAVAAAPTAHVGLMVHGLPLAPATAAVTLAGPVAAAGLSSTAALGMVGGAAALMMGSLAAMLGALAALPALAASGPPLLGGAATTAAMIVGGTLAMMAATLPVSGTGGAAACHGAIPGGLHAALALTAGVL
In the case of B1, the “number of diseased spikelets vs control receptor material” value in assay [2] is “significantly less”. For the same molecule, in assay [3], the “diseased spot area on leaves vs KN199” value is given as “significantly reduced”. Also, the “disease spot area of ex-vivo leaves vs receptor material” value in assay [4] is listed as “significantly reduced”.
